# From patent US10196344B2, “Glaucocalyxin a derivative and preparation method and application thereof” (SUZHOU PHARMAVAN CANCER RESEARCH CENTER CO., LTD., priority 2015, dated 2019)
# “Also recorded” adds a separate entry of the source. Read-outs that look alike come from different tables or passages of the source.
# Assays:
# U251 cell line of glioma = assay: Cell proliferation assay (MTT), U251; type: cell-based; conditions: 1-100 μmol/L, 48 h, FIG. 7-8
# Method: (§1) Cell Proliferation Assay (MTT): The experiment assaying the inhibition of dimethylamino glaucocalyxin A hydrochloride salt (hereinafter referred to as GH02) and glaucocalyxin A (i.e. GLA) on cell proliferation of cancer cell lines was performed as follows: cells of cancer cell lines were adjusted to a density of 10^4/100 μL and were seeded into 96-well plates at 100 μL per well and cultured overnight until the cells were completely adherent and grown up to 70-80% confluence. […] Subsequently, the supernatant was removed, 150 μL DMSO was added to each well and incubated with shaking for 10 min, and then the absorbance was measured at 490 nm on a microplate reader. Inhibitory rate of the cell proliferation=[(absorbance of the control group−absorbance of blank)−(absorbance of the medication group−absorbance of blank)]/(absorbance of the control group−absorbance of blank)% As shown in FIG. 4 to FIG. 6, MDA-MB-231 and MCF-7 are cell lines of breast cancer, SGC-7901 is a cell line of gastric cancer, U251 is a cell line of glioma, and A549 is a cell line of lung cancer.
# [1] = test system: MDA-MB-231 breast cancer cell line; assay: Cell proliferation assay (MTT), MDA-MB-231; type: cell-based; conditions: 48 h; for Inhibitory rate of the cell proliferation versus concentration: 1-100 μmol/L; for IC50 for the inhibition of proliferation, compared among five cell lines: MTT
# Method: Cell Proliferation Assay (MTT): The experiment assaying the inhibition of dimethylamino glaucocalyxin A hydrochloride salt (hereinafter referred to as GH02) and glaucocalyxin A (i.e. GLA) on cell proliferation of cancer cell lines was performed as follows: cells of cancer cell lines were adjusted to a density of 10^4/100 μL and were seeded into 96-well plates at 100 μL per well and cultured overnight until the cells were completely adherent and grown up to 70-80% confluence. The mother liquid of GH02 and GLA (both of which concentrations were 100 mM) were diluted with complete medium, respectively, to final concentrations of 1, 3.125, 6.25, 12.5, 25, 50, 100 μmol/L, and then such diluted solutions were added into wells of 96-well plates, with each concentration being performed in 4 replicates, and the group without cells acting as blank control, and then incubated in the incubator at […]. After incubation for 48 h, MTT was added to each well to a final concentration of 0.5 mg/ml and further incubated in the incubator at […] for 4 h. Subsequently, the supernatant was removed, 150 μL DMSO was added to each well and incubated with shaking for 10 min, and then the absorbance was measured at 490 nm on a microplate reader. Inhibitory rate of the cell proliferation=[(absorbance of the control group−absorbance of blank)−(absorbance of the medication group−absorbance of blank)]/(absorbance of the control group−absorbance of blank)% As shown in FIG. 4 to FIG. 6, MDA-MB-231 and MCF-7 are cell lines of breast cancer, SGC-7901 is a cell line of gastric cancer, U251 is a cell line of glioma, and A549 is a cell line of lung cancer.
# Water solubility = type: physicochemical; conditions: found by the inventors by means of experiments
# [2] = test system: MCF-7 cell line of breast cancer; assay: Cell proliferation assay (MTT), MCF-7; type: cell-based; conditions: 1-100 μmol/L, 48 h, FIG. 7-8
# Method: as §1
# [3] = Oral bioavailability / in vivo pharmacokinetics; conditions: when used as a drug; found by the inventors by means of experiments
# [4] = test system: SGC-7901 cell line of gastric cancer; assay: Cell proliferation assay (MTT), SGC-7901; type: cell-based; conditions: 1-100 μmol/L, 48 h, FIG. 7-8
# Method: as §1
# [5] = test system: A549 cell line of lung cancer; assay: Cell proliferation assay (MTT), A549; type: cell-based; conditions: 1-100 μmol/L, 48 h, FIG. 7-8
# Method: as §1
# [6] = background statement; cited from earlier work
# [7] = background statement; cited from earlier work; remark: listed apart in the source
SMILES,Inhibitory rate of the cell proliferation versus concentration (U251 cell line of glioma),"Inhibitory rate of the cell proliferation versus concentration ([1]; FIG. 7-8, hydrochloride)","IC50 for the inhibition of proliferation, compared among five cell lines ([1]; FIG. 4-6, hydrochloride)",water solubility (Water solubility),Inhibitory rate of the cell proliferation versus concentration [2],oral bioavailability [3],Inhibitory rate of the cell proliferation versus concentration [4],Inhibitory rate of the cell proliferation versus concentration [5],bioavailability in vivo [6],half-life in vivo [6],water solubility [7],Inhibitory rate of the cell proliferation versus concentration ([1]; FIG. 7-8),"IC50 for the inhibition of proliferation, compared among five cell lines ([1]; FIG. 4-6)"
"CN(C)CC1C(=O)C23C(O)C1CCC2[C@]1(C)CCC(=O)C(C)(C)[C@H]1C[C@H]3O.Cl (some centres unmarked) [GH02, dimethylamino glaucocalyxin A hydrochloride]",increased with the increase of the concentration of GH02,increased with the increase of the concentration of GH02; also recorded: highest inhibitory rate,lowest IC50 values,good water solubility,increased with the increase of the concentration of GH02,high oral bioavailability,increased with the increase of the concentration of GH02,increased with the increase of the concentration of GH02,–,–,–,–,–
"C=C1C(=O)C23C(O)C1CCC2[C@]1(C)CCC(=O)C(C)(C)[C@H]1C[C@H]3O (stereo partly drawn) [GLA, Kaur-16-ene-3,15-dione,(7α, 14R)—]",increased with the increase of the concentration of GLA,–,–,–,increased with the increase of the concentration of GLA,–,increased with the increase of the concentration of GLA,increased with the increase of the concentration of GLA,low bioavailability,short half-life,poor water solubility,increased with the increase of the concentration of GLA; also recorded: highest inhibitory rate,lowest IC50 values
